According to patent publication US10272261B2, “Methods and compositions for treating ocular glaucoma” (Massachusetts Eye and Ear Infirmary, priority 2004, dated 2019):

How the values were obtained:
C57BL/6 normal mice = test: IOP measurement (applanation tonometer) after transscleral ciliary body PDT in C57BL/6 normal mice; type: in vivo, mouse
Method: (§1) All experiments were performed in accordance with the Association for Research in Vision and Ophthalmology Statement for the Use of Animals in Ophthalmic and Vision Research. C57BL/6 female mice aged 3 months (n=20) were used as the normal model. DBA/2J female mice aged 8 months (n=20) were used as the glaucoma mouse model. One eye of each animal was treated and the other eye served as a control (for both the normal and glaucoma models). Animals were housed in covered cages, were fed with a standard rodent diet ad libitum and were kept under constant 12 hour light-12 hour dark cycles. For general anesthesia, a mixture of ketamine (100 mg/kg) and xylazine (9 mg/kg) was administered intraperitoneally.
Verteporfin photosensitizer (Novartis Ophthalmics, Inc., Duluth, Ga.) was used in these experiments. The mice were systemically anesthetized prior to PDT, and the photosensitizer dye was administered to the animals by tail vain injections using a 30 G needle 5 minutes before laser irradiation. A dose of 2.0 or 4.0 mg/kg was used in C57BL/6 normal mice and of 1.0 mg/kg was used in DBA/2J mice. The laser irradiation to the ciliary body was applied transsclerally using a 600 μm optical fiber at a wavelength of light of 689 nm from a Diode Laser, with an irradiance of 1800 mW/cm^2 and a fluence of 100 J/cm^2 (Lumenis, Santa Clara, Calif.). […] In the C57BL/6 and DBA/2J mice, 16 and 8 spots, respectively, were irradiated to overlap with one another. In the eyes prepared for lectin labeling and terminal deoxynucleotide transferase-mediated nick end labeling (TUNEL) staining (a measure of apoptosis), PDT was performed in C57BL/6 mice to cover 180 degrees of the ciliary body at a 4.0 mg/kg verteporfin dose to compare the degree of staining between irradiated area and non-irradiated area. Retreatment was performed in C57BL/6 normal mice which had been treated with 2.0 mg/kg of verteporfin after the IOP measurement at post-PDT day 7 using the same light parameters.
(§2) The IOP was measured using a previously reported applanation tonometer (Ahamed et al. (2003) IOVS 44:ARVO E-Abstract 3336) (n=12 in DBA/2J mice, n=5 in C57BL/6 mice at each dose). The principle of applanation tonometry employs fiber-optic gauges which are designed around a Fabry-Perot interferometer (FPI) (FTI-10; FISO Technologies, Inc., Quebec, Canada). FPI consists of two mirrors facing each other, the space separating the mirrors being called the cavity length. Light reflected in the FPI is wavelength-modulated in exact accordance with the cavity length. FPI gauges convert pressure into cavity length variations which correlate with IOP.
IOP was measured under general anesthesia. Standardization of the plane of anesthesia was obtained as described previously (John et al. (1997) INVEST. OPHTHALMOL. VIS. SCI. 38:249-53). Anesthesia was administered to one mouse at a time. […] Then anesthesia was injected in the next mouse.
As soon as the mice were anesthetized sufficiently, they were placed on a surgical platform. When the pressure sensor applanated a central area of mouse cornea under a dissecting microscope, the IOP (psi) was measured by the device 10 times automatically. The resulting pressures were converted into mmHg units by multiplying the obtained mean value by […]. The LOP was measured every 2 days in the first week, then twice a week until 4 weeks after PDT, and then once a week until 8 weeks after PDT.

DBA/2J glaucoma mice = test: IOP measurement (applanation tonometer) after transscleral ciliary body PDT in DBA/2J glaucoma mice; type: in vivo, mouse
Method: as §1
DBA/2J mice spontaneously develop essential iris atrophy, pigment dispersion, and glaucomatous changes. The IOP becomes elevated in most mice by the age of 9 months, which can be followed by ganglion cell loss, optic nerve atrophy and optic nerve cupping. As glaucoma developed, ganglion cell loss and mild cupping of the optic nerve were present in some animals by 11 months and in the majority of mice by the age of 22 months.
Verteporfin photosensitizer (Novartis Ophthalmics, Inc., Duluth, Ga.) was used in these experiments. The mice were systemically anesthetized prior to PDT, and the photosensitizer dye was administered to the animals by tail vain injections using a 30 G needle 5 minutes before laser irradiation. A dose of 2.0 or 4.0 mg/kg was used in C57BL/6 normal mice and of 1.0 mg/kg was used in DBA/2J mice. The laser irradiation to the ciliary body was applied transsclerally using a 600 μm optical fiber at a wavelength of light of 689 nm from a Diode Laser, with an irradiance of 1800 mW/cm^2 and a fluence of 100 J/cm^2 (Lumenis, Santa Clara, Calif.). Transscleral irradiation of the ciliary body was performed with applications for 360 degrees of the corneoscleral limbus in C57BL/6 normal mice and for 180 degrees in DBA/2J mice. In the C57BL/6 and DBA/2J mice, 16 and 8 spots, respectively, were irradiated to overlap with one another. In the eyes prepared for lectin labeling and terminal deoxynucleotide transferase-mediated nick end labeling (TUNEL) staining (a measure of apoptosis), PDT was performed in C57BL/6 mice to cover 180 degrees of the ciliary body at a 4.0 mg/kg verteporfin dose to compare the degree of staining between irradiated area and non-irradiated area. Retreatment was performed in C57BL/6 normal mice which had been treated with 2.0 mg/kg of verteporfin after the IOP measurement at post-PDT day 7 using the same light parameters.
as §2, with “FPI gauges convert pressure into cavity length variations which correlate with IOP.” left out
IOP was measured under general anesthesia. […]
As soon as the mice were anesthetized sufficiently, they were placed on a surgical platform. When the pressure sensor applanated a central area of mouse cornea under a dissecting microscope, the IOP (psi) was measured by the device 10 times automatically. […]

## verteporfin
C57BL/6 normal mice; 2 mg/kg i.v., 360 degrees, 3 days after treatment, p<0.01
  reduction of mean IOP of treated eyes compared to the control eyes: 41.3%
C57BL/6 normal mice; 2 mg/kg i.v., 689 nm, 100 J/cm^2, 360 degrees, 1 day after treatment, p<0.05
  reduction of mean IOP of treated eyes compared to the control eyes: 35.1%
C57BL/6 normal mice; 2.0 mg/kg, 180° of the ciliary body irradiated
  IOP reduction, preliminary experiments: significant IOP reduction was not obtained
C57BL/6 normal mice; 2.0 mg/kg, after first treatment
  time by which mean IOP returned to the level of the fellow control eyes: ≤ 7 days
C57BL/6 normal mice; 2 mg/kg, retreatment at day 7, 10 days after first PDT
  mean IOP of treated eyes: 8.7±2.6 mmHg
C57BL/6 normal mice; 2 mg/kg, retreatment at day 7, 14 days after first PDT
  mean IOP of treated eyes: 9.5±2.1 mmHg
C57BL/6 normal mice; 2 mg/kg, with retreatment at day 7, days after PDT
  time by which mean IOP returned to the level of the control eyes: ≤ 17 days
C57BL/6 normal mice; 2 mg/kg, with retreatment, 28 and 42 days after PDT
  mean IOP in treated eyes versus fellow control eyes: statistically lower than the level of fellow control eyes
C57BL/6 normal mice; 4 mg/kg
  duration of significant reduction of mean IOP: 14 days
C57BL/6 normal mice; 4 mg/kg i.v., 360 degrees, 1 day after treatment, p<0.05
  mean IOP of treated eyes: 9.2±2.4 mmHg
C57BL/6 normal mice; 4 mg/kg, after treatment
  time by which mean IOP returned to the level of the fellow control eyes: ≤ 17 days
C57BL/6 normal mice; 4 mg/kg, 1 day after treatment
  reduction of mean IOP of treated eyes compared to the control eyes: 42.1%
C57BL/6 normal mice; 4 mg/kg, 5 days after treatment
  reduction of mean IOP of treated eyes compared to the control eyes: 47.3%
C57BL/6 normal mice; 4 mg/kg, 5 days after treatment, p<0.01
  mean IOP of treated eyes (minimum): 7.2±1.9 mmHg
C57BL/6 normal mice; treated normal mice eyes (2.0 and 4.0 mg/kg)
  duration of significant reduction of mean IOP: 7 to 17 days
DBA/2J glaucoma mice; 1.0 mg/kg i.v., 689 nm, 100 J/cm^2, 180 degrees, 1 day after treatment
  mean IOP of treated eyes: 15.9±5.7 mmHg
DBA/2J glaucoma mice; 1.0 mg/kg, 180 degrees, 1 day after PDT
  difference of mean IOP between fellow control eyes and treated eyes: no significant difference
DBA/2J glaucoma mice; 1.0 mg/kg, 180 degrees, 3 days after PDT
  mean IOP of treated eyes: 9.5±3.4 mmHg
DBA/2J glaucoma mice; 1.0 mg/kg, 180 degrees, 3 days after PDT, p<0.05
  reduction of mean IOP of treated eyes compared to fellow control eyes: 40.8%
DBA/2J glaucoma mice; 1.0 mg/kg, treatment of 180°
  IOP reduction: significant reduction of IOP
